How the values were obtained:
[1] = Inhibition of PKD1 (unknown origin) assessed as inhibition constant
[2] = Inhibition of PKD1 (unknown origin)

Ki [1]: 64 nM | IC50 [2]: 210 nM
Structure (SMILES): CN1C(=O)[C@](O)(C#Cc2cccc(-n3nc(C(N)=O)c4cccnc43)c2)[C@H]2C[C@H]21 [1-(3-(((1R,4R,5S)-4-hydroxy-2-methyl-3-oxo-2-azabicyclo[3.1.0]hexan-4-yl)ethynyl)phenyl)-1H-pyrazolo[3,4-b]pyridine-3-carboxamide]
